Test results published in US8933228B2, “Respiratory formulations and compounds for use therein” (Respivert, Ltd., priority 2010, dated 2015).

What was measured:
p38 MAPK γ (MAPK12) = p38 MAPK γ (MAPK12) (Homo sapiens (Human), UniProt P53778); test: Enzyme inhibition assay (FRET, Z-LYTE), p38 MAPK gamma; format: biochemical; details: read-out: Enzyme Profile: IC50 Values p38γ
Summary of the method: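 Recombinant phosphorylated human p38γ preincubated with compound 2 hr at RT in HEPES buffer, then reacted 1 hr with 2 μM FRET peptide and 100 μM ATP. Protease development 1 hr; phosphorylation derived from coumarin/fluorescein emission ratio.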

[1] = tested on: TNFα release in d-U937 cells; test: LPS-induced TNFα release in d-U937 cells; format: cell-based; details: Homo sapiens, dU937, LPS 0.1 μg/mL, 4 hr, relative to 10 μg/mL BIRB796, read-out: d-U937 (LPS) TNFα REC50
Summary of the method: (§1)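 U937 cells made macrophage-like by 48–72 h with PMA (100 ng/mL), then stimulated with LPS (E. coli O111:B4) for 4 h. Supernatant TNFα and IL-8 measured by sandwich ELISA; inhibition versus vehicle control at each concentration, REC50 from concentration-response curve.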

[2] = tested on: ICAM-1 expression in BEAS2B cells; test: Poly I:C-induced ICAM-1 induction in BEAS2B cells; format: cell-based; details: Homo sapiens, BEAS-2B; BEAS2B cells, poly I:C 1 μg/mL, 18 hr; read-out: BEAS2B (polyIC) ICAM1 IC50
Summary of the method: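 Human bronchial epithelial BEAS2B cells pre-incubated 2 hr with test compounds at final concentrations, then transfected with poly I:C (1 μg/mL) using Oligofectamine. Cell-surface ICAM-1 quantified by cell-based ELISA with HRP-conjugated anti-rabbit IgG secondary.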

HRV16 = test: Rhinovirus-titre assay; format: cell-based, human rhinovirus; details: HRV16; for inhibition at 0.04 µg/mL: Human rhinovirus sp., cell not marked b, test compounds 0.04 μg/mL per method (footnote b, 0.2 μg/mL), read-out: HRV titre (inhibitory %): % inhibition observed vs. HRV16 infection control
[3] = tested on: Differentiated U937 cells; test: MTT assay: cell viability; format: cell-based, human; details: 1 μg/ml; for d-U937 MTT Assay 4 h: 5% FCS; for d-U937 MTT Assay 24 h: 10% FCS
Summary of the method: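 Differentiated U937 cells pre-incubated with compound either 4 hr in 5% FCS or 24 h in 10% FCS, then 1 hr MTT. Formazan dissolved in DMSO, absorbance at 550 nm. Percentage viability loss relative to 0.5% DMSO vehicle; apparent increases appear as negative percentages.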

HCK enzyme = HCK enzyme (Homo sapiens (Human), UniProt P08631); test: HCK enzyme inhibition assay (FRET, Z'-LYTE); format: biochemical; details: read-out: Enzyme Profile: IC50 Values HCK
p38 MAPK alpha (MAPK14) = p38 MAPK alpha (MAPK14) (Homo sapiens (Human), UniProt Q16539); test: Enzyme inhibition assay (FRET, Z-LYTE), p38 MAPK alpha via MAPKAP-K2 activation; format: biochemical; details: read-out: Enzyme Profile: IC50 Values p38α
Summary of the method: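 Recombinant p38 MAPKα was preincubated with compound 2 hr at RT. Its activity was measured indirectly through MAPKAP-K2 activation/phosphorylation, read by Z-LYTE FRET after 1 hr protease development. Phosphorylation was taken from the coumarin/fluorescein emission ratio.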

cSrc enzyme = cSrc enzyme (Homo sapiens (Human), UniProt P12931); test: c-SRC enzyme inhibition assay (FRET, Z'-LYTE); format: biochemical; details: read-out: Enzyme Profile: IC50 Values cSrc
[4] = tested on: IL-8 release in d-U937 cells; test: LPS-induced IL-8 release in d-U937 cells; format: cell-based; details: Homo sapiens, dU937; d-U937 cells, LPS 0.1 μg/mL, 4 hr; read-out: d-U937 (LPS) IL-8 IC50
Summary of the method: as §1

[5] = tested on: TNFα release in THP-1 cells; test: LPS-induced TNFα release in THP-1 cells; format: cell-based; details: Homo sapiens; THP-1 cells, LPS 3 μg/mL, 4 hr; read-out: THP1 (LPS) TNFα IC50
Description: The inhibition of TNFα production was calculated at each concentration by comparison with vehicle control.

Row | Structure (SMILES) | IC50 (p38 MAPK γ (MAPK12)) [µM] | EC50 [1] [µM] | IC50 [2] [µM] | inhibition at 0.04 µg/mL (HRV16) [%] | d-U937 MTT Assay 4 h [3] | d-U937 MTT Assay 24 h [3] | IC50 (HCK enzyme) [µM] | IC50 (p38 MAPK alpha (MAPK14)) [µM] | IC50 (cSrc enzyme) [µM] | IC50 [4] [µM] | IC50 [5] [µM] | NBEC (HRV) HRV titre Relative anti-viral activity (HRV16; at 0.04 μg/mL vs. pleconaril at 0.1 μg/mL)
1 | Cc1ccc(-n2nc(C(C)(C)C)cc2NC(=O)Nc2ccc(Oc3ncnc4[nH]c(=O)[nH]c34)c3ccccc23)cc1 [Example 15, 1-(3-(tert-Butyl)-1-(p-tolyl)-1H-pyrazol-5-yl)-3-(4-((8-oxo-8,9-dihydro-7H-purin-6-yl)oxy)naphthalen-1-yl)urea] | 0.539 | 0.033 | > 0.182 | 8 | − (− and + indicate the result is below and above the no significant effect threshold, respectively (<30% inhibition at a concentration of 1 μg/ml)) | − (− and + indicate the result is below and above the no significant effect threshold, respectively (<30% inhibition at a concentration of 1 μg/ml)) | 0.036 | 0.03 | 0.035 | 0.164 | 0.126 | –
2 | COc1ccc(-n2nc(C(C)(C)C)cc2NC(=O)Nc2ccc(Oc3ncnc4[nH]c(=O)cnc34)c3ccccc23)cc1 [Example 22] | 2.62 | > 1.73 | > 0.173 | 8 | − (− and + indicate the result is below and above the no significant effect threshold, respectively (<30% inhibition at a concentration of 1 μg/ml)) | − (− and + indicate the result is below and above the no significant effect threshold, respectively (<30% inhibition at a concentration of 1 μg/ml)) | 0.458 | 0.017 | 0.406 | > 1.73 | > 1.73 | –
3 | CC(C)(C)c1cc(NC(=O)Nc2ccc(Oc3ccnc4[nH]c(=O)cnc34)c3ccccc23)n(-c2ccc(Cl)cc2)n1 [Example 27, 1-(3-(tert-butyl)-1-(4-chlorophenyl)-1H-pyrazol-5-yl)-3-(4-((3-oxo-3,4-dihydropyrido[2,3-b]pyrazin-8-yl)oxy)naphthalen-1-yl)urea] | 0.237 | 0.0016 | 0.0022 | 94 | − (− and + indicate the result is below and above the no significant effect threshold, respectively (<30% inhibition at a concentration of 1 μg/ml)) | − (− and + indicate the result is below and above the no significant effect threshold, respectively (<30% inhibition at a concentration of 1 μg/ml)) | 0.918 | 0.003 | 0.016 | 0.0011 | 0.0075 | –
4 | Cc1ccc(-n2nc(C(C)(C)C)cc2NC(=O)Nc2ccc(Oc3ccnc4[nH]c(=O)c(C)nc34)c3ccccc23)cc1 [Example 8, 1-(3-(tert-butyl)-1-(p-tolyl)-1H-pyrazol-5-yl)-3-(4-((2-methyl-3-oxo-3,4-dihydropyrido[2,3-b]pyrazin-8-yl)oxy)naphthalen-1-yl)urea] | 0.099 | 0.0003 | 0.0006 | 91 | − (− and + indicate the result is below and above the no significant effect threshold, respectively (<30% inhibition at a concentration of 1 μg/ml)) | − (− and + indicate the result is below and above the no significant effect threshold, respectively (<30% inhibition at a concentration of 1 μg/ml)) | 0.005 | 0.007 | 0.007 | 0.0017 | 0.0025 | –
5 | CC(C)(C)c1cc(NC(=O)Nc2ccc(Oc3ccnc4[nH]c(=O)cnc34)c3ccccc23)n(-c2ccc(O)cc2)n1 [Example 16, 1-(3-(tert-Butyl)-1-(4-hydroxyphenyl)-1H-pyrazol-5-yl)-3-(4-((3-oxo-3,4-dihydropyrido[2,3-b]pyrazin-8-yl)oxy)naphthalen-1-yl)urea] | 0.045 | 0.055 | 0.172 | 8 | − (− and + indicate the result is below and above the no significant effect threshold, respectively (<30% inhibition at a concentration of 1 μg/ml)) | − (− and + indicate the result is below and above the no significant effect threshold, respectively (<30% inhibition at a concentration of 1 μg/ml)) | 0.018 | 0.004 | 0.01 | 0.047 | 0.116 | –
6 | COc1ccc(-n2nc(C(C)(C)C)cc2NC(=O)Nc2ccc(Oc3ccnc4[nH]c(=O)n(C)c34)c3ccccc23)cc1 [Example 10] | 0.045 | 0.0013 | 0.006 | 91 | − (− and + indicate the result is below and above the no significant effect threshold, respectively (<30% inhibition at a concentration of 1 μg/ml)) | − (− and + indicate the result is below and above the no significant effect threshold, respectively (<30% inhibition at a concentration of 1 μg/ml)) | 0.003 | 0.006 | 0.007 | 0.001 | 0.0006 | –
7 | COc1ccc(-n2nc(C(C)(C)C)cc2NC(=O)Nc2ccc(Oc3ccnc4[nH]c(=O)cnc34)c(Cl)c2Cl)cc1 [Example 19, 1-(3-(tert-Butyl)-1-(4-methoxyphenyl)-1H-pyrazol-5-yl)-3-(2,3-dichloro-4-((3-oxo-3,4-dihydropyrido[2,3-b]pyrazin-8-yl)oxy)phenyl)urea] | 0.035 | 0.0013 | 0.0006 | 80 | − (− and + indicate the result is below and above the no significant effect threshold, respectively (<30% inhibition at a concentration of 1 μg/ml)) | − (− and + indicate the result is below and above the no significant effect threshold, respectively (<30% inhibition at a concentration of 1 μg/ml)) | 0.004 | 0.002 | 0.007 | 0.0016 | 0.0021 | –
8 | Cc1ccc(-n2nc(C(C)(C)C)cc2NC(=O)Nc2ccc(Oc3ccnc4[nH]c(=O)[nH]c34)c3ccccc23)cc1 [Example 1, 1-(3-tert-butyl-1-p-tolyl-1H-pyrazol-5-yl)-3-(4-(2-oxo-2,3-dihydro-1H-imidazo [4,5-b]pyridin-7-yloxy)naphthalen-1-yl) urea] | 0.074 | 0.0002 | 0.0027 | 94 | − (− and + indicate the result is below and above the no significant effect threshold, respectively (<30% inhibition at a concentration of 1 μg/ml)) | − (− and + indicate the result is below and above the no significant effect threshold, respectively (<30% inhibition at a concentration of 1 μg/ml)) | < 0.002 | 0.017 | 0.007 | 0.019 | 0.0016 | 0.1
9 | CC(C)(C)c1cc(NC(=O)Nc2ccc(Oc3ccnc4[nH]c(=O)cnc34)c3ccccc23)n(-c2ccc(CO)cc2)n1 [Example 17, 1-(3-(tert-Butyl)-1-(4-(hydroxymethyl)phenyl)-1H-pyrazol-5-yl)-3-(4-((3-oxo-3,4-dihydropyrido[2,3-b]pyrazin-8-yl)oxy)naphthalen-1-yl)urea] | 0.318 | 0.012 | 0.014 | 36 | − (− and + indicate the result is below and above the no significant effect threshold, respectively (<30% inhibition at a concentration of 1 μg/ml)) | − (− and + indicate the result is below and above the no significant effect threshold, respectively (<30% inhibition at a concentration of 1 μg/ml)) | 0.024 | 0.007 | 0.011 | 0.024 | 0.014 | –
